What was measured:
Assay in all cases: Small molecule-enzyme mutant complementation study
Type in all cases: biochemical
hIDE A198Y = target: T1, hIDE A198Y (Homo sapiens, UniProt P14735, A198Y); details: A198Y vs hIDE WT, batch 2
T1 construct: The reported N-His6-tagged human IDE42-1019 construct; made in house; host or cells: E. coli Rosetta 2 (DE3) pLysS
Excerpt: (§1) Protease assays with fluorogenic peptide substrates. […] All assay data points were obtained in duplicate.
(§2) Site-directed mutagenesis, expression, and purification of human IDE. The reported N-His6-tagged human IDE42-1019 construct was introduced in the expression plasmid pTrcHis-A (Invitrogen) using primers for uracil-specific excision reactions (USER) by Taq (NEB) and Pfu polymerases (PfuTurbo CX®, Agilent). The IDE gene was amplified with the primers 5′-[…]-dU-[…] and 5′-[…] G-dU-[…] (underlined sequences represent overhangs, and italics highlight the PCR priming sequence). Similarly, the pTrcHis-A vector was amplified for USER cloning with the primers 5′-[…] TGA-dU-[…] CCC and 5′-[…]-dU-[…]. Mutant IDE constructs were generated by amplifying the full vector construct with USER cloning primers introducing a mutant overhang (Table 5).
(§3) All PCR products were purified on microcentrifuge membrane columns (MinElute®, Qiagen) and quantified by UV absorbance (NanoDrop). Each fragment (0.2 pmol) was combined in a 10 μL reaction mixture containing 20 units DpnI (NEB), 0.75 units of USER mix (Endonuclease VIII and Uracil-DNA Glycosylase, NEB), 20 mM Tris-acetate, 50 mM potassium acetate, 10 mM magnesium acetate, 1 mM dithiothreitol at pH 7.9 (1× NEBuffer 4). The reactions were incubated at 37° C. for 45 min, followed by heating to 80° C. and slow cooling to 30° C. (0.2° C./s). The hybridized constructs were directly used for heat-shock transformation of chemically competent NEB turbo E. coli cells according to the manufacturer's instructions. Transformants were selected on carbenicillin LB agar, and isolated colonies were cultured overnight in 2 mL LB.
(§4) The plasmid was extracted using a microcentrifuge membrane column kit (Miniprep®, Qiagen), and the sequence of genes and vector junctions were confirmed by Sanger sequencing (Table 6). The plasmid constructs were transformed by heat-shock into chemically-competent expression strain Rosetta 2 (DE3) pLysS E. coli cells (EMD Millipore), and selected on carbenicillin/chloramphenicol LB agar. Cells transformed with IDE pTrcHis A constructs were cultured overnight at 37° C. in 2 XYT media (31 g in 1 L) containing 100 μg/mL ampicillin and 34 μg/mL chloramphenicol. Expression of His6-tagged IDE proteins was induced when the culture measured OD600 ˜0.6 by addition of isopropyl-β-D-1-thiogalactopyranoside (IPTG) to 1 mM final concentration, incubated overnight at 37° C., followed by centrifugation at 10,000 g for 30 min at 4° C.
(§5) Recombinant His6-tagged proteins were purified by Ni(II)-affinity chromatography (IMAC sepharose beads, GE Healthcare®) according to the manufacturer's instructions. The cell pellets were resuspended in pH 8.0 buffer containing 50 mM phosphate, 300 mM NaCl, 10 mM imidazole, 1% Triton X-100 and 1 mM tris(2-carboxyethyl)phosphine hydrochloride (TCEP), and were lysed by probe sonication for 4 min at 4° C., followed by clearing of cell debris by centrifugation at 10,000 g for 25 min at 4° C. The supernatant was incubated with Ni(II)-doped IMAC resin (2 mL) for 3 h at 4° C. The resin was washed twice with the cell resuspension/lysis buffer, and three times with pH 8.0 buffer containing 50 mM phosphate, 300 mM NaCl,50 mM imidazole and 1 mM TCEP. Elution was performed in 2 mL aliquots by raising the imidazole concentration to 250 mM and subsequently to 500 mM in the previous buffer. The fractions were combined and the buffer was exchanged to the recommended IDE buffer (R&D) using spin columns with 100 KDa molecular weight cut off membranes (Millipore). Protein yields were typically ˜10 μg/L, and >90% purity based on gel electrophoresis analysis (Coomassie stained).

hIDE V360Q = target: T2, hIDE V360Q (Homo sapiens, UniProt P14735, V360Q); details: V360Q vs hIDE WT, batch 1
T2 construct: The reported N-His6-tagged human IDE42-1019 construct was introduced in the expression plasmid pTrcHis-A; made in house; host or cells: E. coli Rosetta 2 (DE3) pLysS
T2 sequence (P14735 42-1019 V360Q): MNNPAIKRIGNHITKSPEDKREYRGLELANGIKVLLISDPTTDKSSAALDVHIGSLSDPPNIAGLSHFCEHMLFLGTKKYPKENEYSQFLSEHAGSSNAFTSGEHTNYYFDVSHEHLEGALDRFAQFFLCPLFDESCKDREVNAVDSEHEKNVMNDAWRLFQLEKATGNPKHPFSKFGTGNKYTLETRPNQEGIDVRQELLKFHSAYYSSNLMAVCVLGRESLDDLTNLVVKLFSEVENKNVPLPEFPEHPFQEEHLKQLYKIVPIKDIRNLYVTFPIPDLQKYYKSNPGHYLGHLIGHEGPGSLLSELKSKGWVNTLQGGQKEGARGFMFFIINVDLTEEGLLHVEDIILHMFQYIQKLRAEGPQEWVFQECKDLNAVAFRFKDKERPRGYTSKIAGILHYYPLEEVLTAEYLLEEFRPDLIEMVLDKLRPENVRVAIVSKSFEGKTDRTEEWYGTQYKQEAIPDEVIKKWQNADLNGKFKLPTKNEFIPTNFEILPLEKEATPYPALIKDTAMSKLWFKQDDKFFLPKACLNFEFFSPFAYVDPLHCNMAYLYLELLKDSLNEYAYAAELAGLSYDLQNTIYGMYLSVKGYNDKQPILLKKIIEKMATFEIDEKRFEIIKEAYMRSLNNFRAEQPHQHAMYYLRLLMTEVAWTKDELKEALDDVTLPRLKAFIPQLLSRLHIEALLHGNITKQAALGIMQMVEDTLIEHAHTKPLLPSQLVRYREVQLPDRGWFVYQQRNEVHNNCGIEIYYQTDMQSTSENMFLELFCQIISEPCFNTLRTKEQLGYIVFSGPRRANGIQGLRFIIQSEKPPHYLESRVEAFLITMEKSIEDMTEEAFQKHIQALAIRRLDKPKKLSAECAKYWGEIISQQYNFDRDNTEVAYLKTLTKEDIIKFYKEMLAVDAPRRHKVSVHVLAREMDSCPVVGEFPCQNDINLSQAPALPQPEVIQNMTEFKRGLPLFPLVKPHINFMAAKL
Excerpt: as §1, §2, §3, §4, §5

hIDE W199Y = target: T3, hIDE W199Y (Homo sapiens, UniProt P14735, W199Y); details: W199Y vs hIDE WT, batch 2
T3 construct: The reported N-His6-tagged human IDE42-1019 construct; made in house; host or cells: E. coli Rosetta 2 (DE3) pLysS
T3 sequence (P14735 42-1019 W199Y): as the sequence (P14735 42-1019 V360Q) above, with W158Y, Q319V counted along it
Excerpt: as §1, §2, §3, §4, §5

hIDE V360R = target: T4, hIDE V360R (Homo sapiens, UniProt P14735, V360R); details: V360R vs hIDE WT, batch 3
T4 construct: The reported N-His6-tagged human IDE42-1019 construct was introduced in the expression plasmid pTrcHis-A; made in house; host or cells: E. coli Rosetta 2 (DE3) pLysS
T4 sequence (P14735 42-1019 V360R): as the sequence (P14735 42-1019 V360Q) above, with Q319R counted along it
Excerpt: as §1, §2, §3, §4, §5

hIDE F202R = target: T5, hIDE F202R (Homo sapiens, UniProt P14735, F202R); details: F202R vs hIDE WT, batch 2
T5 construct: The reported N-His6-tagged human IDE42-1019 construct; made in house; host or cells: E. coli Rosetta 2 (DE3) pLysS
T5 sequence (P14735 42-1019 F202R): as the sequence (P14735 42-1019 V360Q) above, with F161R, Q319V counted along it
Excerpt: as §1, §2, §3, §4, §5

hIDE Y314F = target: T6, hIDE Y314F (Homo sapiens, UniProt P14735, Y314F); details: Y314F vs hIDE WT, batch 2
T6 construct: The reported N-His6-tagged human IDE42-1019 construct; made in house; host or cells: E. coli Rosetta 2 (DE3) pLysS
T6 sequence (P14735 42-1019 Y314F): as the sequence (P14735 42-1019 V360Q) above, with Y273F, Q319V counted along it
Excerpt: as §1, §2, §3, §4, §5

hIDE A198Q = target: T7, hIDE A198Q (Homo sapiens, UniProt P14735, A198Q); details: A198Q vs hIDE WT, batch 1
T7 construct: The reported N-His6-tagged human IDE42-1019 construct; made in house; host or cells: E. coli Rosetta 2 (DE3) pLysS
T7 sequence (P14735 42-1019 A198Q): as the sequence (P14735 42-1019 V360Q) above, with A157Q, Q319V counted along it
Excerpt: as §1, §2, §3, §4, §5

hIDE I310R = target: T8, hIDE I310R (Homo sapiens, UniProt P14735, I310R); details: I310R vs hIDE WT, batch 2
T8 construct: The reported N-His6-tagged human IDE42-1019 construct; made in house; host or cells: E. coli Rosetta 2 (DE3) pLysS
T8 sequence (P14735 42-1019 I310R): as the sequence (P14735 42-1019 V360Q) above, with I269R, Q319V counted along it
Excerpt: as §1, §2, §3, §4, §5

hIDE K364A = target: T9, hIDE K364A (Homo sapiens, UniProt P14735, K364A); details: K364A vs hIDE WT, batch 2
T9 construct: The reported N-His6-tagged human IDE42-1019 construct was introduced in the expression plasmid pTrcHis-A; made in house; host or cells: E. coli Rosetta 2 (DE3) pLysS
T9 sequence (P14735 42-1019 K364A): as the sequence (P14735 42-1019 V360Q) above, with Q319V, K323A counted along it
Excerpt: as §1, §2, §3, §4, §5

hIDE W199F = target: T10, hIDE W199F (Homo sapiens, UniProt P14735, W199F); details: W199F vs hIDE WT, batch 2
T10 construct: The reported N-His6-tagged human IDE42-1019 construct; made in house; host or cells: E. coli Rosetta 2 (DE3) pLysS
T10 sequence (P14735 42-1019 W199F): as the sequence (P14735 42-1019 V360Q) above, with W158F, Q319V counted along it
Excerpt: as §1, §2, §3, §4, §5

hIDE I374M = target: T11, hIDE I374M (Homo sapiens, UniProt P14735, I374M); details: I374M vs hIDE WT, batch 1
T11 construct: The reported N-His6-tagged human IDE42-1019 construct was introduced in the expression plasmid pTrcHis-A; made in house; host or cells: E. coli Rosetta 2 (DE3) pLysS
T11 sequence (P14735 42-1019 I374M): as the sequence (P14735 42-1019 V360Q) above, with Q319V, I333M counted along it
Excerpt: as §1, §2, §3, §4, §5

hIDE G361Q = target: T12, hIDE G361Q (Homo sapiens, UniProt P14735, G361Q); details: G361Q vs hIDE WT, batch 3
T12 construct: The reported N-His6-tagged human IDE42-1019 construct was introduced in the expression plasmid pTrcHis-A; made in house; host or cells: E. coli Rosetta 2 (DE3) pLysS
T12 sequence (P14735 42-1019 G361Q): as the sequence (P14735 42-1019 V360Q) above, with Q319V, G320Q counted along it
Excerpt: as §1, §2, §3, §4, §5

hIDE A198T = target: T13, hIDE A198T (Homo sapiens, UniProt P14735, A198T); details: A198T vs hIDE WT, batch 2
T13 construct: The reported N-His6-tagged human IDE42-1019 construct; made in house; host or cells: E. coli Rosetta 2 (DE3) pLysS
T13 sequence (P14735 42-1019 A198T): as the sequence (P14735 42-1019 V360Q) above, with A157T, Q319V counted along it
Excerpt: as §1, §2, §3, §4, §5

T1 sequence (P14735 42-1019 A198Y): as the sequence (P14735 42-1019 V360Q) above, with A157Y, Q319V counted along it

IC50 shift (hIDE A198Y): 0.5 fold
IC50 shift (hIDE V360Q): 1.5 fold
IC50 shift (hIDE W199Y): 1.8 fold
IC50 shift (hIDE V360R): 1.4 fold
IC50 shift (hIDE F202R): 3.7 fold
IC50 shift (hIDE Y314F): 1.2 fold
IC50 shift (hIDE A198Q): 2.3 fold
IC50 shift (hIDE I310R): 0.8 fold
IC50 shift (hIDE K364A): 26 fold
IC50 shift (hIDE W199F): 3.0 fold
IC50 shift (hIDE I374M): 0.7 fold
IC50 shift (hIDE G361Q): 0.8 fold
IC50 shift (hIDE A198T): 16 fold
SMILES: NC(=O)CCC1NC(=O)C=CC(=O)NC(C(N)=O)CCCCNC(=O)C(Cc2ccc(C(=O)c3ccccc3)cc2)NC(=O)C(CC2CCCCC2)NC1=O (stereo not shown) [Compound 6b]

— patent US20160282364A1, “ASSAY FOR INSULIN-DEGRADING ENZYME (IDE) INHIBITORS” (PRESIDENT AND FELLOWS OF HARVARD COLLEGE, priority 2013, published 2016)
